In PMC10398414, “Isolation and characterization of β-transducin repeat-containing protein ligands screened using a high-throughput screening system” (Oncology Research, 2023):
Square brackets hold non-standard residues; d marks the D form. Ends that are not written are not given here. Peptide text beside a SMILES is read from it. * marks the point of attachment. pS = N[C@@H](COP(=O)(O)O)C(=O)O; Cbz = O=C(OCc1ccccc1)*

T1: mAG-β-TrCP1 (Homo sapiens, UniProt Q9Y297)
T1 construct: made in house; host or cells: Express SF+ insect cells (baculovirus, pFASTBacI); crude lysate used
T1 sequence (Q9Y297 1-605): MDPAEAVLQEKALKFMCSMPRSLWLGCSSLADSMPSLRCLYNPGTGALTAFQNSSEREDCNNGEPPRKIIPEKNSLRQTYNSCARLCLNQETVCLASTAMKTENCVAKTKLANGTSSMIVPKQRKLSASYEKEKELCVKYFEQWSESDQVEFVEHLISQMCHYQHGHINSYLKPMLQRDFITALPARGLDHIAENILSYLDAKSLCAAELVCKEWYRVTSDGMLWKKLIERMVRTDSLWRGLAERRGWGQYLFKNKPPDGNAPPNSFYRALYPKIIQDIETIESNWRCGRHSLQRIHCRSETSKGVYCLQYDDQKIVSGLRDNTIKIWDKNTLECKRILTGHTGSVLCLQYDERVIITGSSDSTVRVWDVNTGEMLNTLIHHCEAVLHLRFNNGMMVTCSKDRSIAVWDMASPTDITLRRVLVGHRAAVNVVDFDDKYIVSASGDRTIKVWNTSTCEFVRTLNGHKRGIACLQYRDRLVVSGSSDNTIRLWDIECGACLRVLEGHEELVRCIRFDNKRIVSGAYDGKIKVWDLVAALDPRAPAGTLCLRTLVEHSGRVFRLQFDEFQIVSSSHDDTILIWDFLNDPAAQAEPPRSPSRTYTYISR

B1: Wnt3a: molecule that stimulates classic Wnt signaling (protein, UniProt P56704 19-352, looked up)
Protein Wnt-3a: SYPIWWSLAVGPQYSSLGSQPILCASIPGLVPKQLRFCRNYVEIMPSVAEGIKIGIQECQHQFRGRRWNCTTVHDSLAIFGPVLDKATRESAFVHAIASAGVAFAVTRSCAEGTAAICGCSSRHQGSPGKGWKWGGCSEDIEFGGMVSREFADARENRPDARSAMNRHNNEAGRQAIASHMHLKCKCHGLSGSCEVKTCWWSQPDFRAIGDFLKDKYDSASEMVVEKHRESRGWVETLRPRYTYFKVPTERDLVYYEASPNFCEPNPETGSFGTRDRTCNVSSHGIDGCDLLCCGRGHNARAERRREKCRCVFHWCCYVSCQECTRVYDVHTCK

Tests used:
[1] = tested on: TCF transcription in HeLa cells; assay: TOP/FOP-Flash luciferase reporter assay (TCF transcription activity); type: cell-based; conditions: 24 h with compound
Procedure: HeLa cells were seeded on 96-well plates. Subsequently, TCF and NF-κB transcription activity was examined by the luciferase assay system. T-cell Factor (TCF) transcription activity was assessed by TOP/FOP-Flash luciferase reporter assay, using a pRL-SV40 vector as an internal control. TOP FLASH contains three […] and a firefly luciferase reporter with a minimal promoter and an upstream of the luciferase reporter gene. FOP FLASH is similar to TOP reporter; however, it has three mutated TCF-binding sites and is used as a negative control. The average ratio of TOP to renilla luciferase divided by FOP was used as TCF activity. TOP flash (Sigma-Aldrich, Temecula, CA, USA) or FOP FLASH reporter plasmids (Sigma-Aldrich) and pRL-sv40 renilla luciferase reporter (Promega) were co-transfected into HeLa cells using Lipofectamine 3000 reagent kit (Thermo Fisher Scientific). Furthermore, 24 h after transfection, cells were cultured with the compounds of different dilutions for another 24 h. The cells were lysed, and the luminescence was measured using the Luciferase Assay System (Promega). A minimum of three samples were taken for each sample.

[2] = tested on: β-catenin and phosphorylated β-catenin in HeLa cells; assay: Analysis of β-catenin degradation by immunoblotting in HeLa cells; type: cell-based; conditions: 3 h with compound
Procedure: (§1) Immunoblotting followed by in vitro ubiquitination assay was performed using anti-human Wee1A [30]. Immunoblotting in the analysis of protein degradation was performed using anti-phospho-β-catenin (Ser33/37/Thr41) antibody (1:1000, Cell Signaling Technology, Danvers, MA, USA), anti-phospho-IκBα (Ser32) (14D4), Rabbit mAb (1:1000, Cell Signaling Technology), anti-β-catenin (D10A8) (1:1000, Cell Signaling Technology), anti-IκBα antibody (1:1000, Cell Signaling Technology), and Goat polyclonal anti-rabbit IgG antibody (1:5000, Proteintech, Am Klopferspitz, Planegg-Martinsried, Germany). The transferred membrane was incubated with specific antibody, then detected using Super Signal West Pico chemiluminescent substrate (Thermo Fisher Scientific) and FUSION SOLO S (VILBER LOURMAT/MS equipment, Zi Sud torcy, Marne-la-vallee, France). The quantification of immunoblotting results was performed using ImageJ software.
For examining the effect on degradation of β-catenin, HeLa cells were cultured in the presence or absence of the compound for 3 h. The cell extracts were examined by immunoblotting using antibodies against β-catenin and phosphorylated β-catenin (p-β-catenin).

SCF^β-TrCP1 = SCF^β-TrCP1 (Homo sapiens, UniProt Q9Y297); assay: In vitro ubiquitination assay (GST-Wee1KR substrate, immunoblotting); type: biochemical; conditions: immunoblots quantitated by ImageJ
Procedure: Components of SCF complex (SKP1, Cul1, Rbx1, and hemagglutinin (HA)-tagged β-TrCP) were expressed in HEK293T cells. Anti-HA antibody was added into the SCF complexes expressed HEK 293T cell lysate and rotated at 4°C for 1 h. Aliquots of this mixture were added to protein G beads and rotated at 4°C for 30 min. After washing the beads in cell lysis buffer three times, the tube was centrifuged at 20,400 × g for 5 min and the supernatant was discarded. The protein on the beads was used as recombinant SCF^β-TrCP complexes. Aliquots of SCF complexes bound on the beads were then added to ubiquitination reactions (10 mM Tris pH = 7.5, 5 mM MgCl2, 1 mM DTT, 1 mM ATP, 20 mM creatine phosphate, 0.1 mg/mL creatine kinase, 5 mM NaF, 1 mM Na3VO4, 2 mg/mL ubiquitin, 0.5 μg E1 enzyme, 2 μg E2 enzyme) in a final volume of 30 µL. Compounds of 100 µM final concentration were added to reactions, and GST-Wee1KR was added as substrate 15 min later. The reaction mixtures were incubated at 37°C for 2 h and were further examined by immunoblotting.
as §1

[3] = tested on: IκBα and phosphorylated IκBα in HeLa cells; assay: TNF-α induced IκBα degradation by immunoblotting in HeLa cells; type: cell-based; conditions: 30 min compound then TNF-α 40 ng/mL 5 min
Procedure: as §1
For examining the effect on degradation of IκBα, HeLa cells were cultured in the presence or absence of the compound for 30 min. TNF-α (Cat. No. TNA-H4211, Acro Biosystems, Newark, DE, USA) was added (40 ng/mL) and incubated for another 5 min. The cell extracts were analyzed using immunoblotting using antibodies against IκBα and phosphorylated IκBα (p-IκBα).

mAG-β-TrCP1 = biological target: T1, mAG-β-TrCP1; assay: High-throughput screening system for β-TrCP ligands (mAG-β-TrCP1 binding to plate-fixed C-IκB-PP15); conditions: serially diluted free phosphopeptide in cell lysate
From the text: NotI digested mAG-β-TrCP1 (mAG, N-terminally fused fluorescent monomeric Azami Green) fragment was inserted to NotI pFASTBacI (Gibco) site for obtaining recombinant plasmid containing mAG-β-TrCP1. The recombinant plasmids were then transformed into DH10Bac cells and the obtained recombinant bacmids were transfected into Express SF+ Cells. Phosphopeptides C-IkB pp15 with target sequences (seq: CDDRHDpSGLDpSMKDEE) for β-TrCP-dependent binding or its negative control C-IkB s15 (seq: CDDRHDSGLDSMKDEE) were used in the establishment of the high-throughput system. These phosphopeptides, and their non-phosphorylated derivatives, were chemically synthesized at RIKEN CBS, Research Resources Center, Japan. C-IkB pp15 or C-IkB s15 (100 μL/well of 10 μM solution) were covalently attached to maleimide-activated 96-well plates (Themo Fisher Scientific, Waltham, MA, USA) overnight. […] After washing, bound mAG-β-TrCP1 was quantitated using spectrofluorometry (excitation, 470 nm; emission, 525 nm).
C-IκB-PP15 is a phosphopeptide whose sequence is derived from IκB that is known to bind to β-TrCP. […] After enough binding and washing, the bound mAG-β-TrCP1 was quantitated using spectrofluorometry. […] When the small molecules compete with the phosphopeptides for mAG-β-TrCP1 binding, there was less plate fluorescence (Fig. 1A).

[4] = tested on: NF-κB transcription activity in HeLa cells; assay: NF-κB luciferase reporter assay (pGL-4.32), TNF-α induced; type: cell-based; conditions: for NF-κB transcription, % of that of the control group (DMSO, TNF-α): 20 μM; for TNF-α induced NF-κB activation of transcription: 24 h compound then TNF-α 4 h
Procedure: For NF-κB transcription activity, PGL-4.32 contains five copies of the NF-κB response element, which is responsible for the transcription of the luciferase reporter gene, with pRL-SV40 as the internal control. NF-κB transcription activity was determined by firefly luciferase expression and normalized by renilla luciferase level. pGL-4.32 reporter plasmids (Promega) and pRL-sv40 renilla luciferase reporter (Promega) were co-transfected into HeLa cells using Lipofectamine 3000 reagent kit. Subsequently, 24 h after transfection, cells were cultured with the compounds of different dilutions for another 24 h. Furthermore, TNF-α was added, and the plates were cultured for another 4 h. The cells were lysed, and the luminescence was measured using the Luciferase Assay System. A minimum of three samples were taken for each sample.

HeLa cells = assay: Cytotoxicity / cell death; type: cell-based; conditions: data not shown

Chain of SCF^β-TrCP1 (P63208 whole entry partner, one chain of several): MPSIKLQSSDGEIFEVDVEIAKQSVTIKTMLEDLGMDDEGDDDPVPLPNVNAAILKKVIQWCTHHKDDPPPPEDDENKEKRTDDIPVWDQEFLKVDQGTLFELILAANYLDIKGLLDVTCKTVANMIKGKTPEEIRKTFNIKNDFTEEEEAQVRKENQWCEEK
Chain of SCF^β-TrCP1 (Q13616 whole entry partner, one chain of several): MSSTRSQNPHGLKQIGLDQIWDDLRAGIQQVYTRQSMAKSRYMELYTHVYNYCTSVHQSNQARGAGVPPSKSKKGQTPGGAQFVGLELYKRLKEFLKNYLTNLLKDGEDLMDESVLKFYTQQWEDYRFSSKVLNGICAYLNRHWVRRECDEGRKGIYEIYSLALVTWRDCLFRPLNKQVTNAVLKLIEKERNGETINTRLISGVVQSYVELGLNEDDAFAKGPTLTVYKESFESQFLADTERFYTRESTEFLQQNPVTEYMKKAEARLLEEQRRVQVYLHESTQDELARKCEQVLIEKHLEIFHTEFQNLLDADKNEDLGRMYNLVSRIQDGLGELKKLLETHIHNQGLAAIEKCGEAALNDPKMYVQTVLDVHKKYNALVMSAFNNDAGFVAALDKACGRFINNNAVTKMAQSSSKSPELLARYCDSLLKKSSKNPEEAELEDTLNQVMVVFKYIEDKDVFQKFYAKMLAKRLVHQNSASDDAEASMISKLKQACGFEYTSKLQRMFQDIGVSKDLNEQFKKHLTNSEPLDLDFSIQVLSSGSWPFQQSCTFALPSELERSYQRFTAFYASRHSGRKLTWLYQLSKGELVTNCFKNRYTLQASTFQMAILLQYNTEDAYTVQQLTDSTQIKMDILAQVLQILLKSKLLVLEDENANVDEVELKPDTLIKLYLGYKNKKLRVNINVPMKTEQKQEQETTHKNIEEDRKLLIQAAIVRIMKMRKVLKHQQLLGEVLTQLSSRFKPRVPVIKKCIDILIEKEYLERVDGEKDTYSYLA
Chain of SCF^β-TrCP1 (P62877 whole entry partner, one chain of several): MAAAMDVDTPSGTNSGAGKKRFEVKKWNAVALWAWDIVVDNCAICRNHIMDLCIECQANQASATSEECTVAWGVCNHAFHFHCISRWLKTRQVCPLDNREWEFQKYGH

Row | Molecule | TCF transcription [1] | level of phosphorylated β-catenin (p-β-catenin) [2] | level of β-catenin [2] | IC50 (SCF^β-TrCP1) [µM] | level of IκBα after TNF-α [3] | level of phosphorylated IκBα (p-IκBα) after TNF-α [3] | binding of mAG-β-TrCP1 to plate-fixed phosphopeptide in presence of free phosphopeptide (mAG-β-TrCP1) | NF-κB transcription, % of that of the control group (DMSO, TNF-α) [4] | TNF-α induced NF-κB activation of transcription [4] | non-specific cytotoxicity (HeLa cells)
1 | COC(=O)c1ccc(-c2ccc(/C=C3\C(=O)N(c4cccc(C(=O)O)c4)N=C3C(F)(F)F)o2)cc1 [NPL62039-01] | did not cause a high increase | promoted the accumulation | did not significantly affect | 9 |  |  |  |  |  | 
2 | CC(C)C[C@@H](C=O)NC(=O)[C@H](CC(C)C)NC(=O)[C@H](CC(C)C)NC(=O)OCc1ccccc1 [MG132, reference compound] (Cbz-Leu-Leu-Leu-aldehyde) |  | caused the accumulation | caused the accumulation |  | caused the inhibition of the degradation | caused the inhibition of the degradation |  |  |  | 
3 | CDDRHDpSGLDpSMKDEE (CDDRHD[pS]GLD[pS]MKDEE) [C-IκB-PP15] |  |  |  |  |  |  | concentration-dependent binding decrease |  |  | 
4 | O=C(O)c1ccc(-c2ccc(/C=C3\C(=O)N(c4ccc(C(=O)O)cc4)N=C3C(F)(F)F)o2)cc1 [NPL72038-01] | did not cause a high increase | promoted the accumulation | did not significantly affect | 7 |  |  |  |  |  | 
5 | CC1=NN(c2ccc(C(=O)O)cc2)C(=O)/C1=C\c1ccc(-c2cc(C)c(C)cc2[N+](=O)[O-])o1 [NPL62020-01] |  |  |  | 30 |  |  |  | approximately 20% | reduced NF-κB activation dose-dependently | cytotoxicity only at high concentration
6 | O=C(O)c1ccc(N2N=C(Cc3ccccc3)/C(=C/c3ccc(-c4ccccc4F)o3)C2=O)cc1 [GS143, reference compound] | did not affect TCF transcription | did not affect | did not affect | 25 | caused the inhibition of the degradation | caused the inhibition of the degradation |  | ~ 40% |  | 
7 | CC1=NN(c2ccc(C(=O)O)cc2)C(=O)/C1=C\c1ccc(-c2ccc3c(c2)C(=O)N(C(C)C)C3=O)o1 [NPL42040-01] |  |  |  | 13 |  |  |  |  | reduced NF-κB activation dose-dependently | cytotoxicity only at high concentration
8 | B1 | increased |  |  |  |  |  |  |  |  | 
